Measured values taken from ChEMBL document CHEMBL4406890, “Discovery of a novel bicyclic compound, DS54360155, as an orally potent analgesic without mu-opioid receptor agonist activity” (Bioorg Med Chem Lett, 2019).
pEC50, pIC50: −log10 of the molar value.

Key:
[1] = 1-Octanol/phosphate buffered-saline distribution coefficient, logD of compound at pH 7.4; type: physicochemical
Mus musculus [2] = assay: Analgesic activity in ddY mouse model of acetic acid-induced writhing assessed as inhibition of writhing numbers at 30 mg/kg, po pretreated for 30 mins followed by acetic acid challenge and measured for 25 mins relative to control; type: functional
[3] = Metabolic stability in CD1 mouse liver microsomes assessed as parent compound remaining incubated for 0.5 hrs in presence of beta-NADP by LC-MS/MS analysis; type: ADME, Microsome; settings: read-out: Stability
hERG (KCNH2) = hERG (KCNH2) (Homo sapiens, UniProt Q12809); assay: Inhibition of human ERG at 10 uM relative to control
hERG (KCNH2), sequence (Q12809 whole entry): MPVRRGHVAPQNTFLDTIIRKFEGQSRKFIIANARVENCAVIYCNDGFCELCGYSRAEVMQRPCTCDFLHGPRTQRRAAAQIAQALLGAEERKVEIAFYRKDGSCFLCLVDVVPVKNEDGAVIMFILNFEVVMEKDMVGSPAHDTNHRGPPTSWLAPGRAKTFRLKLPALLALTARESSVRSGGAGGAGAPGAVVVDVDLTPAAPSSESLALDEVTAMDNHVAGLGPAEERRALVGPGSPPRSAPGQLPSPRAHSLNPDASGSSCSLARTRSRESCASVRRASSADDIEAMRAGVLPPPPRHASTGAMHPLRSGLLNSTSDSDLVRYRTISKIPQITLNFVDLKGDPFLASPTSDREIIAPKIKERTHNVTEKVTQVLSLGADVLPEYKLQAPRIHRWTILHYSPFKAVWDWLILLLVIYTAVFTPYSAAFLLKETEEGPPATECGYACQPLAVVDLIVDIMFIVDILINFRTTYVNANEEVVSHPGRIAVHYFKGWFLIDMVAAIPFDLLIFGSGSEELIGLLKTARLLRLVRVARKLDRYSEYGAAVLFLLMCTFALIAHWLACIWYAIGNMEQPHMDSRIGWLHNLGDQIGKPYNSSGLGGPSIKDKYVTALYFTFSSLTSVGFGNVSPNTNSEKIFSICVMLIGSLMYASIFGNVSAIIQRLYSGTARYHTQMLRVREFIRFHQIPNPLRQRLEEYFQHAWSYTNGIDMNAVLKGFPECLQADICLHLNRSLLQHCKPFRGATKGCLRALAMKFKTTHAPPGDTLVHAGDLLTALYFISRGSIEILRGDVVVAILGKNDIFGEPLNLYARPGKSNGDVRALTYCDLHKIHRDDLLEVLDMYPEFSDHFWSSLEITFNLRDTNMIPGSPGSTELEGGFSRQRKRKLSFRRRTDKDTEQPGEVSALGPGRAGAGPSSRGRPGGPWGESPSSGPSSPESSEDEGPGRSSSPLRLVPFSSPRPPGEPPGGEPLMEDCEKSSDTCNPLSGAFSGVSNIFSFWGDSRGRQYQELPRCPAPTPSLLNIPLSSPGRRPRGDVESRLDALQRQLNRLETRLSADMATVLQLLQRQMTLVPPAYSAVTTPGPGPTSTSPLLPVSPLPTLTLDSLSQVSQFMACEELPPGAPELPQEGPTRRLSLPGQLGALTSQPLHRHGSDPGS

Mus musculus [4] = assay: Analgesic activity in oral dosed ddY mouse model of acetic acid-induced writhing pretreated for 30 mins followed by acetic acid challenge and measured for 25 mins; type: functional
Mus musculus [5] = assay: Analgesic activity in ddY mouse assessed as reduction in total time spent in paw licking and biting during initial phase at 30 mg/kg, po pretreated for 30 mins followed by formalin challenge and measured for 15 mins post formalin challenge by formalin test relative to control; type: functional
Mu-type opioid receptor [6] = target: T1, Mu-type opioid receptor (Homo sapiens, UniProt P35372); assay: Agonist activity at human mu opioid receptor expressed in CHOK1 cells assessed as inhibition of forskolin-induced cAMP production by FRET assay; type: cell-based
T1 sequence (P35372 whole entry): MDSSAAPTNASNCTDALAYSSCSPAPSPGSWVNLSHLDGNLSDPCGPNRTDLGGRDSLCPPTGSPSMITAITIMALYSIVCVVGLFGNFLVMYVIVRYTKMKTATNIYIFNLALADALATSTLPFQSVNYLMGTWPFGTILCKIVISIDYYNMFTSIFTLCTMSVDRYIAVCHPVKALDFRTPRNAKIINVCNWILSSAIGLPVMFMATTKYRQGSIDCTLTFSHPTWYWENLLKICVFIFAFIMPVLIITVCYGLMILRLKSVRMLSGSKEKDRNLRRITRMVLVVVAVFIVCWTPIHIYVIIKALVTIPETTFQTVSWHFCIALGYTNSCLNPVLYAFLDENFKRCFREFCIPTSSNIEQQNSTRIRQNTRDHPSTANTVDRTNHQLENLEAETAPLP

[7] = AUC in ddY mouse at 10 mg/kg, po measured after 3 mins by LC-MS/MS analysis; type: ADME, organism-based; design: time < 0.05 hr, dose 10 mg/kg, route oral; settings: in vivo
[8] = Cmax in ddY mouse at 10 mg/kg, po measured after 3 mins by LC-MS/MS analysis; type: ADME, organism-based; design: dose 10 mg/kg, route oral; settings: in vivo
[9] = Half-life in ddY mouse at 10 mg/kg, po measured after 3 mins by LC-MS/MS analysis; type: ADME, organism-based; settings: in vivo
Mus musculus [10] = assay: Analgesic activity in ddY mouse model of acetic acid-induced writhing assessed as inhibition of writhing numbers at 3 mg/kg, po pretreated for 30 mins followed by acetic acid challenge and measured for 25 mins relative to control; type: functional
Mus musculus [11] = assay: Analgesic activity in ddY mouse model of acetic acid-induced writhing assessed as inhibition of writhing numbers at 10 mg/kg, po pretreated for 30 mins followed by acetic acid challenge and measured for 25 mins relative to control; type: functional
[12] = Clearance in ddY mouse at 1 mg/kg, iv measured after 3 mins by LC-MS/MS analysis; type: ADME, organism-based; settings: in vivo
[13] = Volume of distribution in ddY mouse at 1 mg/kg, iv measured after 3 mins by LC-MS/MS analysis; type: ADME, organism-based; settings: in vivo
Mu-type opioid receptor [14] = target: T1, Mu-type opioid receptor; assay: Displacement of [3H]-diprenorphin from human mu opioid receptor incubated for 1 hr; type: ADME
Mu-type opioid receptor [15] = target: T1, Mu-type opioid receptor; assay: Agonist activity at human mu opioid receptor expressed in CHOK1 cells assessed as inhibition of forskolin-induced cAMP production by FRET assay relative to DAMGO; type: cell-based

Structure (SMILES) | logD [1] | inhibition in vivo at 30 mg/kg (Mus musculus [2]) [%] | remaining at 0.5 h [3] [%] | inhibition at 10 µM (hERG (KCNH2)) [%] | ED50 (Mus musculus [4]) [mg/kg] | inhibition in vivo at 30 mg/kg (Mus musculus [5]) [%] | pEC50 (Mu-type opioid receptor [6]) | AUC at 0.05 h [7] [µM·h] | Cmax [8] [nM] | half-life [9] [h] | inhibition in vivo at 3 mg/kg (Mus musculus [10]) [%] | inhibition in vivo at 10 mg/kg (Mus musculus [11]) [%] | clearance [12] [mL/min/kg] | Vd [13] [L/kg] | pIC50 (Mu-type opioid receptor [14]) | Emax (Mu-type opioid receptor [15]) [%]
O=C1c2[nH]c3ccccc3c2CN2CCC3(CCCN13)C2 (racemic) | 1.2 | 47 | 82 | 13 |  |  |  |  |  |  |  |  |  |  |  | 
CCN1CCCC(=O)c2[nH]c3ccccc3c2C1 | 1.3 | 36 | 49 | 73 |  |  |  |  |  |  |  |  |  |  |  | 
CCN1C(=O)c2[nH]c3ccccc3c2CN2CCC1C2 (racemic) | 1.1 | 43 | 91 | 14 |  |  |  |  |  |  |  |  |  |  |  | 
CC12CCCN(CC1)Cc1c([nH]c3ccccc13)C2=O (racemic) | 1.5 | 21 | 91 | 88 |  |  |  |  |  |  |  |  |  |  |  | 
CN1C(=O)c2[nH]c3ccccc3c2CN2CCC1(C)C2 (racemic) | 0.7 | 37 | 93 | 36 |  |  |  |  |  |  |  |  |  |  |  | 
CN1C(=O)c2[nH]c3ccccc3c2CN2CCC[C@@H]1C2 | 0.9 | 65 | 82 |  |  |  |  |  |  |  |  |  |  |  |  | 
C/C=C1/CN2CC[C@H]1C(=O)c1[nH]c3ccccc3c1C2.O=S(=O)(O)O |  | 49 | 34 | 63 | 32 | 43 | < 4.00 |  |  |  |  |  |  |  |  | 
CN1C(=O)c2[nH]c3ccccc3c2CN2CCC1C2.O=S(=O)(O)O (racemic) | 0.7 | 83 | > 100 | 26 | 21 |  |  | 3.29 | 1460 | 1.69 |  |  |  |  |  | 
CN1C(=O)c2[nH]c3ccccc3c2CN2CCC[C@H]1C2 | 1 | 77 | 74 | 38 | 23 |  |  | 1.59 | 720 | 2.18 |  |  |  |  |  | 
CN1C(=O)c2[nH]c3ccccc3c2CN2CC[C@H]1C2.O=S(=O)(O)O | 0.7 | 95 | 99 | 14 | 12 | 83 | < 4.00 | 5.8 | 2150 | 2.27 | 19 | 23 | 24.9 | 1.72 | < 4.00 | 19
CN1C(=O)c2[nH]c3ccccc3c2CN2CC[C@@H]1C2.O=S(=O)(O)O | 0.7 | 49 | > 100 | 23 | 27 | 30 | < 4.00 | 12.2 | 2990 | 2.52 |  |  | 12.9 | 1.14 | < 4.00 | 18
CN1CCCC(=O)c2[nH]c3ccccc3c2C1 | 1.1 | 31 | 53 | 50 |  |  |  |  |  |  |  |  |  |  |  | 
O=C1c2[nH]c3ccccc3c2CN2CCC(C2)N1C1CC1 (racemic) | 1.1 | 55 | 92 | 19 |  |  |  |  |  |  |  |  |  |  |  | 
CCCN1C(=O)c2[nH]c3ccccc3c2CN2CCC1C2 (racemic) | 1.6 | 44 | 72 | 43 |  |  |  |  |  |  |  |  |  |  |  | 
